In the COVID Moonshot data (paper PMC7615835):
“And” between values parts separate entries of the source, which are not always exact repeats. Identical values can stand only once.

Columns and labels:
SARS-CoV-2 (SARS-CoV-2) [1] = details: vero6
[2] = helaace2
[3] = a549
SARS-CoV-2 (SARS-CoV-2) [4] = details: helaace2
[5] = calu3

NC(=O)CN1Cc2ccc(Cl)cc2C(C(=O)Nc2cncc3ccccc23)C1 (configuration not stated)
IC90 (SARS-CoV-2 (SARS-CoV-2) [1]): < 40 nM

CNC(=O)c1cc2c(NC(=O)C3CCOc4ccc(Cl)cc43)cncc2s1 (configuration not stated)
IC50 (SARS-CoV-2 (SARS-CoV-2) [1]): 568 nM

O=C1NCC(C(=O)Nc2cncc3ccccc23)c2cc(Cl)ccc21 (configuration not stated)
IC90 (SARS-CoV-2 (SARS-CoV-2) [1]): > 5000 nM and 2280 nM

O=C(Nc1cncc2ccccc12)C1CN(S(=O)(=O)CC2CNC2)Cc2ccc(Cl)cc21 (configuration not stated)
CC50 [2]: > 20000 nM

O=C(Nc1cncc2ccccc12)C1CCNc2cc(Cl)c(Cl)cc21 (configuration not stated)
CC50 [3]: < 22.9 nM

CCC(CC)COC(=O)[C@H](C)NP(=O)(OC[C@H]1O[C@@](C#N)(c2ccc3c(N)ncnn23)[C@H](O)[C@@H]1O)Oc1ccccc1 (stereo in doubt)
IC50 (SARS-CoV-2 (SARS-CoV-2) [4]): 240 nM

Cc1ccncc1NC(=O)Cc1cc(Cl)cc(OC2CC(=O)N2)c1 (configuration not stated)
CC50 [5]: 63500 nM
